Our source for the TGI values is PubChem BioAssay (NCI).

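Cultured in 96-well plates, cells were exposed to test compound for 48 hours across five concentrations. TGI: concentration producing complete growth inhibition.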

Test systems include HS 578T breast; MDA-MB-435; NCI-H460 lung; U251 CNS; SF-539 CNS; HOP-62 NSCLC; T-47D breast; CCRF-CEM leukemia; K-562 leukemia; SR leukemia.
What all share (assay): NCI anticancer screen, dose series, 48 h

For the molecule `CCO/C(O)=C(/C(=N)N1CCOCC1)C(=O)Nc1cccc(C(F)(F)F)c1`, the TGI with HS 578T breast, with MDA-MB-435, in the assay with NCI-H460 lung, in the assay with U251 CNS, in the assay on SF-539 CNS and with HOP-62 NSCLC was > 100 µM in each case. For the same molecule, the TGI in the assay with T-47D breast, with CCRF-CEM leukemia and in the assay on K-562 leukemia was > 100 µM throughout.

Turning to `CCOC(=O)/C=C/n1c2ccccc2c(=O)c2cc(OC)ccc21`, the TGI in the assay with NCI-H460 lung, in the assay with U251 CNS, with SF-539 CNS, with HOP-62 NSCLC, in the assay on CCRF-CEM leukemia and in the assay on K-562 leukemia was > 100 µM in each case. For the same molecule, the TGI in the assay with SR leukemia is > 100 µM.

For `O=C(Nc1ccccc1[N+](=O)[O-])/C(=N/Nc1cccc(Cl)c1)c1c(O)c2ccccc2oc1=O`, the TGI is > 100 µM with NCI-H460 lung; > 100 µM with SF-539 CNS; 87.5 µM in the assay on CCRF-CEM leukemia; > 100 µM with K-562 leukemia; 2.67 µM with SR leukemia.

`COc1c(C)c(C/C=C(\C)CC/C=C(\C)CC/C=C(\C)CCC=C(C)C)c(OC)c(OC)c1OC`: the TGI in the assay with HS 578T breast, in the assay on MDA-MB-435, in the assay with NCI-H460 lung, in the assay with U251 CNS, in the assay on SF-539 CNS and with HOP-62 NSCLC was > 100 µM throughout. Further, the TGI in the assay with CCRF-CEM leukemia, in the assay with K-562 leukemia and in the assay with SR leukemia was > 100 µM each time.

Take `NC(Cc1ccc(O)cn1)C(=O)NC(C(=O)O)c1ccccc1` (stereo unspecified): the TGI in the assay on HS 578T breast, in the assay with MDA-MB-435, in the assay with NCI-H460 lung, in the assay with U251 CNS, in the assay with SF-539 CNS and in the assay with HOP-62 NSCLC was > 100 µM throughout. In addition, the TGI in the assay with CCRF-CEM leukemia, in the assay on K-562 leukemia and in the assay with SR leukemia was > 100 µM throughout.

Consider `CC[C@H](C)[C@H](NC(=O)N(CCC#N)CCN(CCN(C(=O)N[C@@H](Cc1ccccc1)C(=O)OC)c1ccccc1)C(=O)N[C@H](C(=O)OC)C(C)C)C(=O)OC`, for which the TGI stood at 86.6 µM with HS 578T breast; 36.3 µM with MDA-MB-435; 36.1 µM in the assay with U251 CNS; 49.1 µM in the assay on SF-539 CNS; 44.9 µM with HOP-62 NSCLC; 47.2 µM with T-47D breast. Further, the TGI in the assay with CCRF-CEM leukemia was 56.1 µM.

As to `CCOC(=O)NN(C(=O)OCC)c1ccc(N=Nc2ccc(OC)cc2)n1C`, the TGI with HS 578T breast was > 100 µM; in the assay with MDA-MB-435 it was 56 µM; in the assay with U251 CNS, > 100 µM; in the assay on SF-539 CNS it was 40.5 µM; in the assay with HOP-62 NSCLC, 86.8 µM; in the assay with T-47D breast it was 76.2 µM. The TGI in the assay with K-562 leukemia came out at 71.4 µM.

As to `Cc1ccc2nc(N)[nH]c(=O)c2c1Sc1ccncc1`, the TGI with NCI-H460 lung is > 100 µM; in the assay on U251 CNS, > 100 µM; with SF-539 CNS it was > 100 µM; in the assay on HOP-62 NSCLC, > 100 µM; in the assay with CCRF-CEM leukemia, > 100 µM; in the assay with K-562 leukemia, > 31.6 µM. In the assay with SR leukemia, the TGI is > 100 µM.

On to `CC(=N/NC(=S)N1CCCCCC1)/C(C)=N\NC(=S)N1CCCCCC1`, for which the TGI is 11.8 µM with HS 578T breast; 3.41 µM in the assay with MDA-MB-435; 31.4 µM in the assay with NCI-H460 lung; 5.73 µM in the assay with U251 CNS; > 100 µM with SF-539 CNS; 15.2 µM with HOP-62 NSCLC. The TGI in the assay with T-47D breast was 3.54 µM; in the assay on K-562 leukemia it was > 100 µM.

On to `CC(C)OP(=O)(OC(C)C)C(=NCCO)NNc1ccc([N+](=O)[O-])cc1`, for which the TGI with NCI-H460 lung, in the assay with U251 CNS, with SF-539 CNS, in the assay with HOP-62 NSCLC, in the assay on CCRF-CEM leukemia and with K-562 leukemia was > 100 µM throughout. Further, in the assay on SR leukemia, the TGI is > 100 µM.

For `Oc1ccc(-c2c3ccccc3c(-c3ccc(O)cc3)c3ccccc23)cc1`, the TGI in the assay on NCI-H460 lung, in the assay on U251 CNS, with SF-539 CNS, with HOP-62 NSCLC, in the assay with CCRF-CEM leukemia and in the assay on K-562 leukemia was > 100 µM throughout. Moreover, in the assay with SR leukemia, the TGI was > 100 µM.

Regarding `O=C(N/N=C(/COc1ccccc1)N=Cc1ccncc1)c1ccncc1`, the TGI with HS 578T breast, in the assay on MDA-MB-435, with NCI-H460 lung, in the assay on U251 CNS, in the assay with SF-539 CNS and with HOP-62 NSCLC was > 100 µM throughout. For the same molecule, the TGI in the assay on T-47D breast, in the assay with CCRF-CEM leukemia and in the assay on K-562 leukemia was > 100 µM in each case.

With `N#C/C(=C\c1ccc(O)c(O)c1)c1c(C#N)c(N)nn1-c1ccccc1`, the TGI in the assay on NCI-H460 lung amounted to 38.3 µM; with U251 CNS, 20.6 µM; in the assay with SF-539 CNS it was 18.9 µM; in the assay on HOP-62 NSCLC it was 40.8 µM; in the assay with CCRF-CEM leukemia, 37.5 µM; in the assay with K-562 leukemia, 55.9 µM.

Take `Cc1ccc(S(=O)(=O)NC(=O)Nc2c(S(N)(=O)=O)cc(S(N)(=O)=O)c(Cl)c2Cl)cc1`: the TGI in the assay with HS 578T breast, in the assay with MDA-MB-435, in the assay with NCI-H460 lung, in the assay with U251 CNS, in the assay with SF-539 CNS and in the assay on CCRF-CEM leukemia was > 100 µM each time. In addition, the TGI in the assay on K-562 leukemia and with SR leukemia was > 100 µM each time.

Take `CCOC(=O)/C(Br)=C1\OC(=O)c2ccccc2-c2ccccc21`: the TGI with U251 CNS was > 100 µM; in the assay with SF-539 CNS it was 73.1 µM; with HOP-62 NSCLC, 54.7 µM; with CCRF-CEM leukemia, 67.7 µM; with K-562 leukemia, > 100 µM; in the assay on SR leukemia it was 56.7 µM.

With `O=[N+]([O-])c1ccc(CSc2nn(Cc3ccc([N+](=O)[O-])cc3)cc3ncnc2-3)cc1`, the TGI in the assay with MDA-MB-435 is 74.7 µM; in the assay with SF-539 CNS, 95.5 µM; with HOP-62 NSCLC it was > 100 µM; with T-47D breast it was > 100 µM; in the assay with K-562 leukemia, > 100 µM.

In the case of `COc1ccc(CN(CCN(C)C)c2ccccn2)cc1` (tested in a mixture with another compound), the TGI in the assay on U251 CNS, in the assay with SF-539 CNS, in the assay on HOP-62 NSCLC, with CCRF-CEM leukemia and with K-562 leukemia was > 100 µM in each case.
